Consider one molecule from patent US20090270342A1, “IMMUNOREGULATORY AGENT” (priority 2006, published 2009).

Each structure is given as a SMILES string.

Series [1] deals with IgA in feces. As to the kind of experiment: Amount of IgA in feces of mice ingesting lactosucrose diet (Experiment 1). The series is classed as in vivo. The note with it: Lactosucrose 5% (w/w) diet. How it is done:
An experiment for investigating the effect of lactosucrose ingestion on the enhancement of gut immunity was carried out by measuring the amount of IgA in feces of mice. Female BALB/c mice (six weeks old) were preliminary reared for one week on “AIN-93G”, containing 40% (w/w) of corn starch, 20% (w/w) of casein, 13.2% (w/w) of α-corn starch, 10% (w/w) of sucrose, 7% (w/w) of soybean oil, 5% (w/w) of cellulose, 3.5% (w/w) of mineral mixture, 1% (w/w) of vitamin mixture, 0.3% (w/w) of L-cystine, and 0.0014% (w/w) of hydroquinone, which is a standard purified diet for researching the nutrition of mice and rats published by American National Institute of Nutrition in 1993. Successively, “LS-90P”, a saccharide composition comprising 91.8% (w/w), onadrysolid basis, of lactosucrose commercialized by ENSUIKO Sugar Refining Co., Ltd., Tokyo, Japan, was incorporated into the above purified diet, in which corn starch equal to the amount of the saccharide composition comprising lactosucrose had been removed, to give a lactosucrose content of 5% (w/w), and five mice/group were allowed to ingest the resulting test diet freely. Mice, allowed to ingest “AIN-93G”, as the standard purified diet, were used as control. Then, fresh feces were collected from the mice at one week, two weeks, three weeks, and four weeks after starting the administration of the test diet and the control diet, and the amount of IgA in the feces was measured by ELISA using anti-IgA antibody (Mouse IgA ELISA Quantitation Kit produced by Bethyl Laboratories, Inc., Texas, USA). The amount of IgA was expressed by mg/g-wet feces and the average value of those from five mice was determined. The percentages in parentheses in Table 1 mean relative values to those of the control at respective weeks.

Series [2] has as its system cedar- and Japanese cypress-pollen disease. As to the kind of experiment: Clinical symptom scores in cedar- and Japanese cypress-pollen allergy, double blind test (Experiment 8). It is filed as in vivo, human. How it is done: In Experiments 4 to 7, it was confirmed that the production of IgE and cytokines, which involves in allergic symptoms, is suppressed by ingesting lactosucrose. Based on the results, an experiment for investigating the suppressing effect of lactosucrose on the clinical symptoms caused by ceder- and Japanese cypress-pollen was carried out as follows. Volunteers who had been self-diagnosed to have allergic symptoms of nose or eyes at a season of cedar- and Japanese cypress-pollen (February to May) in the past two to three years, were recruited as subjects. An interview about the clinical symptoms of nose and eyes for the past two to three years was carried out to the applied volunteers with referencing a guideline for the diagnosis of pollinosis, “HANA ALLERGY SHINDAN GUIDELINE—TUNENSEI BIEN TO KAFUNSHO—2005 NENDO-BAN (Guideline for the diagnosis of nose allergy—chronic allergic rhinitis and pollinosis 2005 edition)”, edited by the committee for the guideline for the diagnosis of nose allergy, published by Life Science pp. 20-24 (2006). Based on the results, 40 persons estimated to be cedar- and Japanese cypress-pollen disease were selected as subjects. The subjects were divided into two groups, a test group ingesting lactosucrose (ingesting 3 g of lactosucrose every day) and a control group ingesting placebo, regarding with a score of clinical symptoms of the subjects. Then, “NYU-KA OLIGO 700”, a 76% (w/w)-solid content syrup, comprising lactosucrose, commercialized by Hayashibara Shoji Inc., Okayama, Japan, which comprises 71.5% (w/w) of lactosucrose, 13.7% (w/w) of sucrose, 7.5% (w/w) of lactose, and 7.3% (w/w) of other saccharides, on a dry solid basis, was repackaged into aluminum pillowcases with about 6 g/package (3 g of lactosucrose/package) and the resulting packages were distributed to the subjects of the lactosucrose-ingesting group. In the same manner, “CORN SUGAR A-33”, an about 75% (w/w)-solid content isomerized sugar syrup comprising sucrose, commercialized by Sanwa Cornstarch Co., Ltd., Nara, Japan, which comprises 33.5% (w/w) of sucrose, 33.7% (w/w) of glucose, and 29.2% (w/w) of fructose, on a dry solid basis, was repackaged into packages with about 6 g/package similarly as in the above and distributed to the subjects of the placebo-ingesting group. The ingestion was started at Jan. 16, 2007 (zero week), before the beginning of cedar-pollen season, and then subjects were allowed to ingest one package of the test substance at any time every day for 18 weeks. The methods for ingesting the test substance were not restricted and the subjects were permitted to ingest directly from the package or after mixing with other foods and beverages. The experiment was carried out with double blind test and the subjects were not restricted except for ingesting the test substance and were allowed to take medicines including an anti-allergic agent. For evaluating the suppression of allergic symptoms by ingesting the test substance, questionnaire survey was carried out to subjects about clinical symptoms of nose and eyes and difficulties on daily life once per week for 21 weeks, from one week before from starting the ingestion of the test substance to two weeks after of the end of the ingestion. The first questionnaire survey was carried out […]. Based on the respective result of the questionnaire of the group ingesting lactosucrose and the control group, the effects were evaluated by scores determined with regarding the suppressive effect on allergic symptoms of medicines such as an anti-allergic agent used during the test period. […] 9, 2007; the beginning of March; and the end of March; respectively, in the test area, the southern part of Okayama Prefecture. […] 27, 2007; and the end of April in the test area. Accordingly, the ingestion of the test substance in the experiment was started about three weeks before the cedar pollen season. […]

For series [3] the following is noted: in vivo; cited from earlier work.
Where [4] appears, read: 3 g of lactosucrose every day, after the start of ingesting the test substance.

In the case of `OC[C@H]1O[C@@H](O[C@H]2[C@H](O)[C@@H](O)[C@@H](O[C@]3(CO)O[C@H](CO)[C@@H](O)[C@@H]3O)O[C@@H]2CO)[C@H](O)[C@@H](O)[C@H]1O` [Lactosucrose, β-D-galactosyl-(1,4)-α-D-glucosyl-(1,2)-β-D-fructoside], the “Amount of IgA in feces, relative value to control” value in series [1] (1 week after) is “(232%)”; in series [1] (2 weeks after), “(285%)”; in series [1] (3 weeks after), “(543%)”; in series [1] (4 weeks after) it was “(755%)”. The “Amount of IgA in feces” value in series [1] (1 week after (8 weeks old)) stood at 13 ± 2.6 mg/g; in series [1] (2 weeks after (9 weeks old)), 5.7 ± 2.3 mg/g; in series [1] (3 weeks after (10 weeks old)) it was 7.6 ± 1.4 mg/g; in series [1] (4 weeks after (11 weeks old)), 8.3 ± 1.9 mg/g. In series [2] (3 g of lactosucrose every day (NYU-KA OLIGO 700), 18 weeks, human pollinosis subjects), the “Generation of clinical symptoms and difficulties on daily life in comparison with the control group” value is “delayed by one week”. In series [2] (3 g of lactosucrose every day, 18 weeks, FIG. 1), the “Score of clinical symptoms of nose compared with the control group” value was “kept lower value than those of the control group during four to 10 weeks”. Further, the “Score of clinical symptoms of eyes compared with the control group” value in series [2] (3 g of lactosucrose every day, 18 weeks, FIG. 2) was “lower than those of the control group though the test period”. For the same molecule, the “Score of difficulties on daily life compared with the control group” value in series [2] (3 g of lactosucrose every day, 18 weeks, FIG. 3) is recorded as “lower than those of the control group though the test period”. In addition, in series [2] (setting [4]), the “Time at which the score of clinical symptoms of eyes reached a peak” value was “eight weeks”. Moreover, the “Time at which the score of clinical symptoms of nose reached a peak” value in series [2] (setting [4]) is “seven weeks”. Further, in series [2] (setting [4]), the “Time at which the score of difficulties on daily life reached a peak” value is listed as “seven weeks”. The “Effect of a dose higher than the maximum dose without harmful effect” value in series [3] was “causes diarrhea”. The “Maximum dose of lactosucrose without harmful effect” value in series [3] is 0.6-0.8 g/kg-body weight.
